# Tests used:
# [1] = Oxidation in UV light: change in the UV spectrum on irradiation; format: physicochemical
# Experimental: The curves stand for the unirradiated substance (exposed to 0 kJ/m^2), after irradiation for 15 min (exposure to 86 kJ/m^2), after irradiation for 65 min (exposure to 373 kJ/m^2), after irradiation for 235 min (exposure to 1349 kJ/m^2) and after irradiation for 405 min (exposure to 2325 kJ/m^2).
# [2] = Oxidation in UV light in the presence of further antioxidants: UV/VIS spectrum of beta-carotene emulsions on irradiation
smiles,measurement,setting,value
CCCCC(CC)COC(=O)C(Cc1cc(OC)c(O)c(OC)c1)C(=O)OCC(CC)CCCC (stereo not shown),UV absorption in the UV-A region on irradiation with UV light,"[1]; after irradiation for 65 min (373 kJ/m^2), xenon lamp 95.69 W/m^2, 290-400 nm, increases further on longer irradiation",significantly increased UV absorption
same,Emax of the UV-A absorption developed on irradiation,"[1]; neat substance, after UV irradiation",320-340 nm
same,effect on beta-carotene degradation in the emulsion on UV irradiation,"[2]; emulsion with 0.5% beta-carotene and 4% compound vs emulsion without compound, irradiated 90 min, beta-carotene absorption at 440-480 nm",stabilises the beta-carotene
same,Emax of the absorption of the reaction product in the UV-A region,"[2]; emulsion with 0.5% by weight beta-carotene and 4% by weight compound, irradiated 90 min (curve B)",320-340 nm
